From US6492393B1, “Compounds useful as anti-inflammatory agents” (Boehringer Ingelheim Pharmaceuticals, Inc., priority 1999, dated 2002)

Tested on: TNFα in lipopolysaccharide stimulated THP cells
Assay: Inhibition of TNF Production in THP Cells
Assay type: cell-based
Settings: LPS (1 μg/mL) stimulated THP.1 cells, 18-24 hr incubation, human TNFα by ELISA
Description: Inhibition of TNF Production in THP Cells
The inhibition of cytokine production can be observed by measuring inhibition of TNFα in lipopolysaccharide stimulated THP cells (for example, see W. Prichett et al., 1995, J. Inflammation, 45, 97). All cells and reagents were diluted in RPMI 1640 with phenol red and L-glutamine, supplemented with additional L-glutamine (total: 4 mM), penicillin and streptomycin (50 units/ml each) and fetal bovine serum (FBS, 3%) (GIBCO, all conc. final). Assay was performed under sterile conditions; only test compound preparation was nonsterile. Initial stock solutions were made in DMSO followed by dilution into RPMI 1640 2-fold higher than the desired final assay concentration. Confluent THP.1 cells (2×10^6 cells/mL, final conc.; […], Rockville, Md.) were added to 96 well polypropylene round bottomed culture plates (Costar 3790; sterile) containing 125 μL test compound (2 fold concentrated) or DMSO vehicle (controls, blanks). […] Cell mixture was allowed to preincubate for 30 min, 37° C., 5% CO2 prior to stimulation with lipopolysaccharide (LPS; 1 μg/mL final; Siga L-2630, from E. coli serotype 0111.B4; stored as 1 mg/mL stock in endotoxin screened distilled H2O at −80° C.). Blanks (unstimulated) received H2O vehicle; final incubation volume was 250 μl. Overnight incubation (18-24 hr) proceeded as described above. Assay was terminated by centrifuging plates 5 min, room temperature, 1600 rpm (400×g); supernatants were transferred to clean 96 well plates and stored −80° C. until analyzed for human TNFα by a commercially available ELISA kit (Biosource #KHC3015, Camarillo, Calif.). Data was analyzed by non-linear regression (Hill equation) to generate a dose response curve using SAS Software System (SAS institute, Inc., Cary, N.C.). The calculated IC50 value is the concentration of the test compound that caused a 50% decrease in the maximal TNFα production.

Cc1ccc(C(C)(C)C)cc1NC(=O)Nc1ccc(Oc2cccnc2)c2ccccc12 [1-[5-tert-butyl-2-methylphenyl]-3-[4-(3-pyridinyloxy)-naphthalen-1-yl]-urea]
IC50: < 10 µM

Cc1ccc(C(C)(C)C)cc1NC(=O)Nc1ccc(Oc2ccnc(N)c2)c2ccccc12 [1-(5-tert-Butyl-2-methylphenyl)-3-[4-(2-aminopyridin-4-yl-oxy)naphthalen-1-yl]urea]
IC50: < 10 µM

Cc1ccc(C(C)(C)C)cc1NC(=O)Nc1ccc(Oc2ccncc2)c2ccccc12 [1-[5-tert-butyl-2-methylphenyl]-3-[4-(4-pyridinyloxy)-naphthalen-1-yl]-urea]
IC50: < 10 µM

COc1ccc(C(C)(C)C)cc1NC(=O)Nc1ccc(OCCN2CCOC(COc3ccccc3)C2)c2ccccc12 (stereo not shown) [1-[5-tert-butyl-2-methoxyphenyl]-3-[4-(2-(2-phenoxymethyl)morpholin-4-yl-ethoxy)-naphthalen-1-yl]-urea]
IC50: < 10 µM

CC(C)(C)c1ccc(N2CCOCC2)c(NC(=O)Nc2ccc(OCCN3CCOCC3)c3ccccc23)c1 [1-(5-tert-Butyl-2-morpholin-4-yl-phenyl)-3-[4-(2-morpholin-4-yl-ethoxy)-naphthalen-1-yl]-urea]
IC50: < 10 µM

Cc1ccc(C(C)(C)C)cc1NC(=O)Nc1ccc(OCCN2CCOCC2)c2ccccc12 [1-[5-tert-butyl-2-methylphenyl]-3-[4-(2-morpholin-4-yl-ethoxy)-naphthalen-1-yl]-urea]
IC50: < 10 µM

CC(C)(C)c1cc(Br)c(NCCN2CCOCC2)c(NC(=O)Nc2ccc(OCCN3CCOCC3)c3ccccc23)c1 [1-[3-Bromo-5-tert-butyl-2-(2-morpholin-4-yl-ethylamino)-phenyl]-3-[4-(2-morpholin-4-yl-ethoxy)-naphthalen-1-yl]-urea]
IC50: < 10 µM
